Source: US9242933B2 (AbbVie Deutschland GmbH & Co. KG, priority 2007, dated 2016)

target: T1, human mGlu2 receptor (Homo sapiens, UniProt Q14416); experiment: FLIPR intracellular Ca2+ assay, potentiation of glutamate response in HEK293 clone expressing mGlu2 receptor, rGLAST and Galpha16; format: cell-based; conditions: 1 μM glutamate added ten minutes after test compound, HEK293 cells with human mGlu2, rGLAST, Galpha16, read-out: EC50 values of potentiation effect to glutamate
T1 construct: expressed in transfected cells; host or cells: HEK293
T1 sequence (Q14416 19-872): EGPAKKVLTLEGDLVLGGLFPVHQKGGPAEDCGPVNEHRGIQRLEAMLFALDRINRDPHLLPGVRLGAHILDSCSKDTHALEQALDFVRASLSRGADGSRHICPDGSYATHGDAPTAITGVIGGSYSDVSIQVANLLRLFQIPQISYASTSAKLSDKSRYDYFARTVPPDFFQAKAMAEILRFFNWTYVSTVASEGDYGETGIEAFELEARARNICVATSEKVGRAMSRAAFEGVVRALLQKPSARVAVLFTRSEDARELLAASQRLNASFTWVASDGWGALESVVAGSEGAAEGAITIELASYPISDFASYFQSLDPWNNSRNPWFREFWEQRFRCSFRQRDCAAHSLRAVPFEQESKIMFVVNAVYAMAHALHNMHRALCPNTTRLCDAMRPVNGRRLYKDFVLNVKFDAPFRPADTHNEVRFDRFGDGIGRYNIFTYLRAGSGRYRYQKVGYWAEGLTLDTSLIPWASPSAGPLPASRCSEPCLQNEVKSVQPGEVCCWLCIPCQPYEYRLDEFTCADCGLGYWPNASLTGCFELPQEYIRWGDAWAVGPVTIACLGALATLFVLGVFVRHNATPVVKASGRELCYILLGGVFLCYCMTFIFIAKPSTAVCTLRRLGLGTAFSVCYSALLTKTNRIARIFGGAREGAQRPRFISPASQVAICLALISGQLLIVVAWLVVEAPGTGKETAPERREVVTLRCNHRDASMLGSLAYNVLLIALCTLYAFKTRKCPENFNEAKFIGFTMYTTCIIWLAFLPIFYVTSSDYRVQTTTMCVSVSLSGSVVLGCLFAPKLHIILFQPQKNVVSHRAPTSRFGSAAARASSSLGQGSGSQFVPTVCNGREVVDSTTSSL
Text: The compounds of the present invention can be tested e.g. by evaluating intracellular Ca^2+ concentrations in cells permanently expressing human mGlu receptor, the rat glutamate transporter rGLAST and the Galpha16 subunit of the G-protein complex under standard conditions in a fluorometric imaging plate reader (FLIPR, Molecular Devices, Union City, Calif. 94587, USA) by measuring the response of the cells to a test compound in the absence of presence of glutamate. The FLIPR assay is a common functional assay to monitor native or recombinant Galphaq-coupled receptors, and native or recombinant receptors normally linked to other G-protein signalling cascades, which are coupled to calcium through co-expression of an alpha subunit of a promiscuous or chimeric G-protein. In the assay the increase of intracellular calcium is measured through a calcium-dependent fluorescent dye (e.g. Fluo-4 AM) in the FLIPR instrument.
For the purpose of the present study, a cell line permanently expressing a human mGlu receptor, such as the mGlu2 receptor, the rat glutamate transporter rGLAST and the GalphaG16 may be generated by transfection as described in the examples. For selection of a suitable cell clone and also the subsequent measurements, the selected clone the cells will be plated on suitable multiwell plates in a suitable medium (e.g. DMEM Glutamax (GIBCO #21885-025)/10% dialyzed FCS). Cells may be selected by gentamycin treatment as described in the examples. Cells will then be loaded with a suitable Ca^2+ sensitive fluorescence dye, e.g. with 2 μM Fluo-4 AM (Molecular Probes, F14201). Cells will then be washed with a suitable buffer (e.g. HEPES) and the thus treated plates will be measured in a fluorometric imaging plate reader (e.g. FLIPR, Molecular Devices, Union City, Calif. 94587, USA).
The compounds of the present invention were tested in the above-described FLIPR assay using the selected cell clone. Increased intracellular calcium levels were quantified following addition of test compound (agonism), as well as following addition of a submaximal concentration of glutamate (potentiation).
For the determination of the effect of the test compound by itself (agonism) or by increasing the response to a submaximal concentration (e.g. 1 μM) of glutamate (potentiation), the resulting signal is determined by subtraction of the background fluorescence from the maximal fluorescent peak height of the respective response. In the FLIPR instrument the compound is given to the cell and its fluorescence response quantified by the FLIPR instrument (agonism). The concentration at which the compound exerts half its maximal effect is named the ‘effective concentration 50’ or ‘EC50’. The maximal effect induced by the test substance is normalized to the maximal effect exerted by 100 μM glutamate (set at 100%).
After addition of the test compound to the plate, a submaximal concentration of glutamate (e.g. 1 μM glutamate) will be added. A potentiator enhances the response of the receptor to glutamate. The response to glutamate in the presence of test compound is quantified. The concentration at which the test compound is able to exert half its maximal potentiation effect to glutamate is named the ‘EC50’. The maximal response to the submaximal concentration of glutamate (e.g. 1 micromolar glutamate) in the presence of test compound is normalized to the maximal effect exerted by 100 micromolar glutamate (set at 100%). Least squares curve fitting with a four-parameter equation is then applied to the resulting dose-response curve to determine the resulting EC5O values (Graph Pad Prism).
For the purpose of the present study, a cell line permanently expressing the human mGlu2 receptor, the rat glutamate transporter rGLAST and the alpha subunit of G16 was generated by transfection. […]

Row | Compound | EC50
1 | CCCC(=O)c1ccc(NCc2cn(-c3ccccc3)nc2-c2ccncc2)cc1 [Example 214, 1-{4-[(1-Phenyl-3-pyridin-4-yl-1H-pyrazol-4-ylmethyl)-amino]-phenyl}-butan-1-one] | 1000 to 10000 nM
2 | CCCC(=O)c1ccc(NCc2n[nH]c3ccccc23)cc1 [Example 215, 1-{4-[(1H-Indazol-3-ylmethyl)-amino]-phenyl}-butan-1-one] | 1000 to 10000 nM
3 | CCCC(=O)c1ccc(NCc2ccnn2C)cc1 [Example 216, 1-{4-[(2-Methyl-2H-pyrazol-3-ylmethyl)-amino]-phenyl}-butan-1-one] | 1000 to 10000 nM
4 | CCCC(=O)c1ccc(NCc2c[nH]nc2-c2ccc(Cl)cc2)cc1 [Example 217, 1-(4-{[3-(4-Chloro-phenyl)-1H-pyrazol-4-ylmethyl]-amino}-phenyl)-butan-1-one] | < 1000 nM
5 | CCCC(=O)c1ccc(NCc2c[nH]nc2-c2ccc(OC)c(OC)c2)cc1 [Example 218, 1-(4-{[3-(3,4-Dimethoxy-phenyl)-1H-pyrazol-4-ylmethyl]-amino}-phenyl)-butan-1-one] | < 1000 nM
6 | CCCC(=O)c1ccc(NCc2nn(C)c3ccccc23)cc1 [Example 219, 1-{4-[(1-Methyl-1H-indazol-3-ylmethyl)-amino]-phenyl}-butan-1-one] | 1000 to 10000 nM
7 | CCCC(=O)c1ccc(NCc2cnn(Cc3ccccc3)c2)cc1 [Example 220, 1-{4-[(1-Benzyl-1H-pyrazol-4-ylmethyl)-amino]-phenyl}-butan-1-one] | 1000 to 10000 nM
8 | CCCC(=O)c1ccc(NCc2cn(-c3ccccc3)nc2-c2ccc(F)cc2)cc1 [Example 221, 1-(4-{[3-(4-Fluorophenyl)-1-phenyl-1H-pyrazol-4-ylmethyl]-amino}-phenyl)-butan-1-one] | 1000 to 10000 nM
9 | CCCC(=O)c1ccc(NCc2cn(-c3ccccc3)nc2-c2cccnc2)cc1 [Example 222, 1-{4-[(1-Phenyl-3-pyridin-3-yl-1H-pyrazol-4-ylmethyl)-amino]-phenyl}-butan-1-one] | 1000 to 10000 nM
10 | CCCC(=O)c1ccc(NCc2n[nH]c3ccc(OC)cc23)cc1 [Example 223, 1-{4-[(5-Methoxy-1H-indazol-3-ylmethyl)-amino]-phenyl}-butan-1-one] | 1000 to 10000 nM
11 | CCCC(=O)c1ccc(NCc2c(C)n[nH]c2C)cc1 [Example 224, 1-{4-[(3,5-Dimethyl-1H-pyrazol-4-ylmethyl)-amino]-phenyl}-butan-1-one] | 1000 to 10000 nM
12 | CCCC(=O)c1ccc(NCc2nc3ccccc3n2C)cc1 [Example 226, 1-{4-[(1-Methyl-1H-benzoimidazol-2-ylmethyl)-amino]-phenyl}-butan-1-one] | 1000 to 10000 nM
13 | CCCC(=O)c1ccc(NCc2c(C)noc2C)cc1 [Example 227, 1-{4-[(3,5-Dimethyl-isoxazol-4-ylmethyl)-amino]-phenyl}-butan-1-one] | 1000 to 10000 nM
14 | CCCC(=O)c1ccc(NCc2cn(C)cn2)cc1 [Example 228, 1-{4-[(1-Methyl-1H-imidazol-4-ylmethyl)-amino]-phenyl}-butan-1-one] | 1000 to 10000 nM
15 | CCCC(=O)c1ccc(NCc2sc(C)nc2-c2ccccc2)cc1 [Example 233, 1-{4-[(2-Methyl-4-phenyl-thiazol-5-ylmethyl)-amino]-phenyl}-butan-1-one] | 1000 to 10000 nM
16 | CCCC(=O)c1ccc(NCc2cnc(-c3ccccc3OC)s2)cc1 [Example 242, 1-(4-{[2-(2-Methoxy-phenyl)-thiazol-5-ylmethyl]-amino}-phenyl)-butan-1-one] | 1000 to 10000 nM
17 | CCCC(=O)c1ccc(NCc2cnc(-c3cccc(OC)c3)s2)cc1 [Example 243, 1-(4-{[2-(3-Methoxy-phenyl)-thiazol-5-ylmethyl]-amino}-phenyl)-butan-1-one] | 1000 to 10000 nM
18 | CCCC(=O)c1ccc(NCc2nc(-c3cccs3)oc2C)cc1 [Example 245, 1-{4-[(5-Methyl-2-thiophen-2-yl-oxazol-4-ylmethyl)-amino]-phenyl}-butan-1-one] | 1000 to 10000 nM

Row | Compound | EC50
19 | CCCC(=O)c1ccc(NCc2cnc(-c3ccccc3)s2)cc1 [Example 246, 1-{4-[(2-Phenyl-thiazol-5-ylmethyl)-amino]-phenyl}-butan-1-one] | 1000 to 10000 nM
20 | CCCC(=O)c1ccc(NCc2sc(Cl)nc2Cl)cc1 [Example 250, 1-{4-[(2,4-Dichloro-thiazol-5-ylmethyl)-amino]-phenyl}-butan-1-one] | 1000 to 10000 nM
21 | CCCC(=O)c1ccc(NCc2cc(-c3ccccc3F)no2)cc1 [Example 255, 1-(4-{[3-(2-Fluorophenyl)-isoxazol-5-ylmethyl]-amino}-phenyl)-butan-1-one] | 1000 to 10000 nM
22 | CCCC(=O)c1ccc(NCc2cnc(Oc3ccc(OC)cc3)s2)cc1 [Example 260, 1-(4-{[2-(4-Methoxy-phenoxy)-thiazol-5-ylmethyl]-amino}-phenyl)-butan-1-one] | 1000 to 10000 nM
23 | CCCC(=O)c1ccc(NCc2csc(C(C)C)n2)cc1 [Example 268, 1-{4-[(2-Isopropyl-thiazol-4-ylmethyl)-amino]-phenyl}-butan-1-one] | 1000 to 10000 nM
24 | CCCOc1ccc(NCc2c[nH]nc2C(C)(C)C)cc1 [Example 273, (3-tert-Butyl-1H-pyrazol-4-ylmethyl)-(4-propoxy-phenyl)-amine] | 1000 to 10000 nM
25 | CC(C)(C)c1n[nH]cc1CNc1ccc(OC(F)(F)Cl)cc1 [Example 281, (3-tert-Butyl-1H-pyrazol-4-ylmethyl)-[4-(chloro-difluoro-methoxy)-phenyl]-amine] | 1000 to 10000 nM
26 | CN1CCC(Oc2ccc(NCc3c[nH]nc3C(C)(C)C)cc2)CC1 [Example 284, (3-tert-Butyl-1H-pyrazol-4-ylmethyl)-[4-(1-methyl-piperidin-4-yloxy)-phenyl]-amine] | 1000 to 10000 nM
27 | CC(C)(C)c1n[nH]cc1CNc1ccc(OCc2ccccn2)cc1 [Example 285, (3-tert-Butyl-1H-pyrazol-4-ylmethyl)-[4-(pyridin-2-ylmethoxy)-phenyl]-amine] | 1000 to 10000 nM
28 | CC(C)COc1ccc(NCc2c[nH]nc2C(C)(C)C)cc1 [Example 286, (3-tert-Butyl-1H-pyrazol-4-ylmethyl)-(4-isobutoxy-phenyl)-amine] | 1000 to 10000 nM
29 | CC(C)CCOc1ccc(NCc2c[nH]nc2C(C)(C)C)cc1 [Example 298, (3-tert-Butyl-1H-pyrazol-4-ylmethyl)-[4-(3-methyl-butoxy)-phenyl]-amine] | 1000 to 10000 nM
30 | CCCC(=O)c1ccc(NCc2ccc(Cl)nc2Cl)cc1 [Example 307, 1-{4-[(2,6-Dichloro-pyridin-3-ylmethyl)-amino]-phenyl}-butan-1-one] | 1000 to 10000 nM
31 | CCCC(=O)c1ccc(NCc2cccnc2OC(C)C)cc1 [Example 310, 1-{4-[(2-Isopropoxy-pyridin-3-ylmethyl)-amino]-phenyl}-butan-1-one] | 1000 to 10000 nM
32 | CCCOc1ncccc1CNc1ccc(C(=O)CCC)cc1 [Example 311, 1-{4-[(2-Propoxy-pyridin-3-ylmethyl)-amino]-phenyl}-butan-1-one] | 1000 to 10000 nM
33 | CCCC(=O)c1ccc(NCc2ccc(N3CCCCC3)nc2)cc1 [Example 312, 1-{4-[(3,4,5,6-Tetrahydro-2H-[1,2′]bipyridinyl-5′-ylmethyl)-amino]-phenyl}-butan-1-one] | 1000 to 10000 nM
34 | CCCC(=O)c1ccc(NCc2ccc(OC3CCCC3)nc2)cc1 [Example 313, 1-{4-[(6-Cyclopentyloxy-pyridin-3-ylmethyl)-amino]-phenyl}-butan-1-one] | 1000 to 10000 nM
35 | CCCC(=O)c1ccc(NCc2ccc(OC)nc2OC)cc1 [Example 317, 1-{4-[(2,6-Dimethoxy-pyridin-3-ylmethyl)-amino]-phenyl}-butan-1-one] | 1000 to 10000 nM
